# Measurements from US6440903B1, “Substituted 2,4-diamino-1,3,5-triazines as herbicides” (Bayer Aktiengesellschaft, priority 1996, dated 2002).
# What was measured:
# weeds [1] = experiment: Pre-emergence test (summary in text); format: in vivo; settings: result in words
# Method: (§1) Solvent: 5 parts by weight of acetone
# (§2) Emulsifier: 1 part by weight of alkylaryl polyglycol ether
# (§3) To produce a suitable preparation of active compound, 1 part by weight of active compound is mixed with the stated amount of solvent, the stated amount of emulsifier is added and the concentrate is diluted with water to the desired concentration.
# Seeds of the test plants are sown in normal soil. After about 24 hours, the soil is watered with the preparation of active compound. The amount of water per unit area is advantageously kept constant. The concentration of active compound in the preparation is immaterial, only the application rate of active compound per unit area matters.
# After three weeks, the degree of damage to the plants is scored visually in % damage in comparison to the development of the untreated control.
# (§4) 0%=no effect (like untreated control)
# weeds [2] = experiment: Post-emergence test (summary in text); format: in vivo; settings: result in words
# Method: as §1, §2, §3
# Test plants which have a height of 5-15 cm are sprayed with the preparation of active compound such that the particular amounts of active compounds desired are applied per unit area. The concentration of the spray liquor is chosen so that the particular amounts of active compound desired are applied in 1000 l of water/ha.
# After three weeks, the degree of damage to the plants is scored visually in % damage in comparison to the untreated control.
# as §4
# Setaria = experiment: Post-emergence test; format: in vivo; settings: greenhouse, scored after three weeks; for pest or weed control at 1000 g/ha / pest or weed control at 500 g/ha / pest or weed control at 250 g/ha: Setaria, 504 h, read-out: % damage, Setaria; for pest or weed control at 1000 g/ha: 1000 g of ai./ha; for pest or weed control at 500 g/ha: 500 g of ai./ha; for % damage, Setaria / pest or weed control at 250 g/ha: 250 g of ai./ha
# Method: (§5) Post-emergence Test Solvent: 5 parts by weight of acetone Emulsifier: 1 part by weight of alkylaryl polyglycol ether To produce a suitable preparation of active compound, 1 part by weight of active compound is mixed with the stated amount of solvent, the stated amount of emulsifier is added and the concentrate is diluted with water to the desired concentration. Test plants which have a height of 5-15 cm are sprayed with the preparation of active compound such that the particular amounts of active compounds desired are applied per unit area. The concentration of the spray liquor is chosen so that the particular amounts of active compound desired are applied in 1000 l of water/ha. After three weeks, the degree of damage to the plants is scored visually in % damage in comparison to the untreated control. The Figures Denote: 0%=no effect (like untreated control) 100%=total destruction
# Amaranthus = experiment: Post-emergence test; format: in vivo; settings: greenhouse, scored after three weeks; for pest or weed control at 1000 g/ha / pest or weed control at 500 g/ha / pest or weed control at 250 g/ha: Amaranthus, 504 h, read-out: % damage, Amaranthus; for pest or weed control at 1000 g/ha: 1000 g of ai./ha; for pest or weed control at 500 g/ha: 500 g of ai./ha; for % damage, Amaranthus / pest or weed control at 250 g/ha: 250 g of ai./ha
# Method: as §5
# Sinapis = experiment: Post-emergence test; format: in vivo; settings: greenhouse, 1000 g of ai./ha, scored after three weeks
# Method: as §5
# Wheat = experiment: Post-emergence test; format: in vivo; settings: greenhouse, scored after three weeks; for plant injury at 500 g/ha: 500 g of ai./ha; for % damage, Wheat / plant injury at 250 g/ha: 250 g of ai./ha
# Method: as §5
# Viola = experiment: Post-emergence test; format: in vivo; settings: greenhouse, scored after three weeks; for pest or weed control at 500 g/ha: 500 g of ai./ha; for % damage, Viola / pest or weed control at 250 g/ha: 250 g of ai./ha
# Method: as §5
# Polygonum = experiment: Post-emergence test; format: in vivo; settings: greenhouse, scored after three weeks; for pest or weed control at 500 g/ha: 500 g of ai./ha; for % damage, Polygonum / pest or weed control at 250 g/ha: 250 g of ai./ha
# Method: as §5
# Chenopodium = experiment: Post-emergence test; format: in vivo; settings: greenhouse, scored after three weeks; for pest or weed control at 500 g/ha: 500 g of ai./ha; for % damage, Chenopodium / pest or weed control at 250 g/ha: 250 g of ai./ha
# Method: as §5
# [3] = Triticum aestivum, 504 h, read-out: % damage, Wheat
# [4] = 504 h, read-out: % damage, Viola
# [5] = Polygonum, 504 h, read-out: % damage, Polygonum
# [6] = Chenopodium, 504 h, read-out: % damage, Chenopodium
smiles,measurement,setting,value
CC(Nc1nc(N)nc(C(C)(C)F)n1)c1ccc(Cl)cc1 (stereo not drawn) [Example 16],activity against weeds,weeds [1],strong activity
same,activity against weeds,weeds [2],strong activity
CC(=O)Nc1nc(NC(C)c2ccc(Cl)cc2)nc(C(C)Cl)n1 (stereo not drawn) [Example 146],melting point,,126 °C
same,activity against weeds,weeds [2],strong activity
CSc1ccc(C(C)Nc2nc(N)nc(C(C)(Cl)Cl)n2)cc1 (stereo not drawn) [Example 126],melting point,,133 °C
same,activity against weeds,weeds [2],strong activity
CC(Nc1nc(N)nc(C(Cl)Cl)n1)c1ccc(Cl)cc1 (stereo not drawn) [Example 168],melting point,,133 °C
same,activity against weeds,weeds [2],strong activity
COc1ccc(C(C)Nc2nc(NC(C)=O)nc(C(F)(F)F)n2)cc1 (stereo not drawn) [Example 82],melting point,,130 °C
same,activity against weeds,weeds [2],strong activity
COc1ccc(C(C)Nc2nc(NC(C)=O)nc(C(F)(F)F)n2)cc1 (stereo not drawn) [Example 84],melting point,,108 °C
same,activity against weeds,weeds [2],strong activity
CSc1ccc(C(C)Nc2nc(N)nc(C(Cl)Cl)n2)cc1 (stereo not drawn) [Example 108],melting point,,125 °C
same,activity against weeds,weeds [2],strong activity
CC(=O)Nc1nc(NC(C)c2ccc(Cl)cc2)nc(C(Cl)Cl)n1 (stereo not drawn) [Example 175],melting point,,131 °C
same,activity against weeds,weeds [2],strong activity
COCc1nc(NC(C)=O)nc(NC(C)c2ccc(SOC)cc2)n1 (stereo not drawn),pest or weed control at 1000 g/ha,Setaria,100%
same,pest or weed control at 1000 g/ha,Amaranthus,100%
same,"% damage, Sinapis",Sinapis,100%
COCc1nc(NC(C)=O)nc(NC(C)c2ccc(SC)cc2)n1 (stereo not drawn) [Example 103],melting point,,141 °C
same,activity against weeds,weeds [2],strong activity
CC(Nc1nc(N)nc(C(C)(Cl)Cl)n1)c1ccc(Cl)cc1 (stereo not drawn) [Example 159],activity against weeds,weeds [1],strong activity
COSc1ccc(C(C)Nc2nc(N)nc(C(C)Cl)n2)cc1 (stereo not drawn),pest or weed control at 1000 g/ha,Setaria,100%
same,pest or weed control at 1000 g/ha,Amaranthus,100%
same,"% damage, Sinapis",Sinapis,100%
"CC(Nc1nc(N)nc(C(F)(F)F)n1)c1ccc([S+](C)[O-])cc1 (racemic) [Example 3, 2-amino-4-trifluoromethyl-6-[1-(4-methylsulphinyl-phenyl)-ethylamino]-1,3,5-triazine]",melting point,,220 °C (dec.)
CCC(Nc1nc(N)nc(C(F)(F)F)n1)c1ccc(Cl)cc1 (stereo not drawn) [Example 85],melting point,,145 °C
same,activity against weeds,weeds [2],strong activity
CC(=O)Nc1nc(NC(C)c2ccc(Cl)cc2)nc(C(C)Cl)n1 (stereo not drawn) [drawing 134],pest or weed control at 500 g/ha,Setaria,100%
same,plant injury at 500 g/ha,Wheat; [3],10%
same,pest or weed control at 500 g/ha,Viola; [4],100%
same,pest or weed control at 500 g/ha,Amaranthus,100%
same,pest or weed control at 500 g/ha,Polygonum; [5],100%
same,pest or weed control at 500 g/ha,Chenopodium; [6],100%
CSc1ccc(C(C)Nc2nc(N)nc(C(Cl)Cl)n2)cc1 (stereo not drawn) [drawing 113],pest or weed control at 1000 g/ha,Setaria,90%
same,plant injury at 1000 g/ha,"Wheat; Triticum aestivum, 504 h, 1000 g of ai./ha, read-out: % damage, Wheat",0%
same,pest or weed control at 1000 g/ha,"Viola; 504 h, 1000 g of ai./ha, read-out: % damage, Viola",100%
same,pest or weed control at 1000 g/ha,Amaranthus,100%
same,pest or weed control at 1000 g/ha,"Polygonum; Polygonum, 504 h, 1000 g of ai./ha, read-out: % damage, Polygonum",80%
same,pest or weed control at 1000 g/ha,"Chenopodium; Chenopodium, 504 h, 1000 g of ai./ha, read-out: % damage, Chenopodium",100%
"CSc1ccc(C(C)Nc2nc(N)nc(C(F)(F)F)n2)cc1 (racemic) [Example 1, 2-amino4-trifluoromethyl-6-[1-(4-methylthio-phenyl)-ethylamino]-1,3,5-triazine]",melting point,,111 °C
CC(Nc1nc(N)nc(C(C)(C)F)n1)c1ccc(Cl)cc1 (stereo not drawn) [Example 22],activity against weeds,weeds [1],strong activity
CC(Cl)c1nc(N)nc(NC(C)c2ccc(Cl)cc2)n1 (stereo not drawn) [drawing 131],"% damage, Setaria",Setaria,90%
same,"% damage, Wheat",Wheat,10%
same,"% damage, Viola",Viola,100%
same,"% damage, Amaranthus",Amaranthus,100%
same,"% damage, Polygonum",Polygonum,100%
same,"% damage, Chenopodium",Chenopodium,100%
CC(Nc1nc(N)nc(C(F)C(F)(F)F)n1)c1ccc(Cl)cc1 (stereo not drawn) [drawing 128],"% damage, Setaria",Setaria,90%
same,"% damage, Wheat",Wheat,10%
same,"% damage, Viola",Viola,100%
same,"% damage, Amaranthus",Amaranthus,100%
same,"% damage, Polygonum",Polygonum,100%
same,"% damage, Chenopodium",Chenopodium,100%
COCc1nc(NC(C)=O)nc(NC(C)c2ccc(Cl)cc2)n1 (stereo not drawn) [Example 178],melting point,,155 °C
same,activity against weeds,weeds [2],strong activity
CC(Nc1nc(N)nc(C(F)C(F)(F)F)n1)c1ccc(Cl)cc1 (stereo not drawn) [drawing 117],pest or weed control at 250 g/ha,Setaria,95%
same,plant injury at 250 g/ha,Wheat; [3],10%
same,pest or weed control at 250 g/ha,Viola; [4],100%
same,pest or weed control at 250 g/ha,Amaranthus,100%
same,pest or weed control at 250 g/ha,Polygonum; [5],100%
same,pest or weed control at 250 g/ha,Chenopodium; [6],100%
CC(=O)Nc1nc(NC(C)c2ccc(Cl)cc2)nc(C(C)Cl)n1 (stereo not drawn) [Example 177],melting point,,110 °C
same,activity against weeds,weeds [2],strong activity
COCc1nc(N)nc(NC(C)c2ccc(Cl)cc2)n1 (stereo not drawn) [Example 98],melting point,,149 °C
same,activity against weeds,weeds [2],strong activity
"CSc1ccc(C(C)Nc2nc(NC(C)=O)nc(C(F)(F)F)n2)cc1 (racemic) [Example 2, 2-acetylamino-4-trifluoromethyl-6-[1-(4-methylthio-phenyl)-ethylamino]-1,3,5-triazine]",melting point,,132 °C
CCC(Nc1nc(NC(C)=O)nc(C(F)(F)F)n1)c1ccc(Cl)cc1 (stereo not drawn) [Example 90],melting point,,116 °C
same,activity against weeds,weeds [2],strong activity
CCc1nc(NC(C)=O)nc(NC(C)c2ccc(Cl)cc2)n1 (stereo not drawn) [Example 173],melting point,,182 °C
same,activity against weeds,weeds [2],strong activity
COc1ccc(C(C)Nc2nc(NC(C)=O)nc(C(F)(F)F)n2)cc1 (stereo not drawn) [drawing 141],pest or weed control at 500 g/ha,Setaria,95%
same,plant injury at 500 g/ha,Wheat; [3],10%
same,pest or weed control at 500 g/ha,Viola; [4],100%
same,pest or weed control at 500 g/ha,Amaranthus,100%
same,pest or weed control at 500 g/ha,Polygonum; [5],100%
same,pest or weed control at 500 g/ha,Chenopodium; [6],100%
CC(F)c1nc(N)nc(NC(C)c2ccc(Cl)cc2)n1 (stereo not drawn) [Example 14],activity against weeds,weeds [1],strong activity
COc1ccc(C(C)Nc2nc(N)nc(C(F)(F)F)n2)cc1 (stereo not drawn) [drawing 138],pest or weed control at 500 g/ha,Setaria,100%
same,plant injury at 500 g/ha,Wheat; [3],0%
same,pest or weed control at 500 g/ha,Viola; [4],100%
same,pest or weed control at 500 g/ha,Amaranthus,100%
same,pest or weed control at 500 g/ha,Polygonum; [5],100%
same,pest or weed control at 500 g/ha,Chenopodium; [6],100%
CCc1nc(NC(C)=O)nc(NC(C)c2ccc(Cl)cc2)n1 (stereo not drawn) [drawing 132],pest or weed control at 500 g/ha,Setaria,80%
same,plant injury at 500 g/ha,Wheat; [3],10%
same,pest or weed control at 500 g/ha,Viola; [4],100%
same,pest or weed control at 500 g/ha,Amaranthus,100%
same,pest or weed control at 500 g/ha,Polygonum; [5],100%
same,pest or weed control at 500 g/ha,Chenopodium; [6],100%
CC(Cl)c1nc(N)nc(NC(C)c2ccc(Cl)cc2)n1 (stereo not drawn) [Example 157],activity against weeds,weeds [1],strong activity
CC(Cl)c1nc(N)nc(NC(C)c2ccc(Cl)cc2)n1 (stereo not drawn) [drawing 125],"% damage, Setaria",Setaria,80%
same,"% damage, Wheat",Wheat,10%
same,"% damage, Viola",Viola,95%
same,"% damage, Amaranthus",Amaranthus,100%
same,"% damage, Polygonum",Polygonum,95%
same,"% damage, Chenopodium",Chenopodium,95%
CCc1nc(N)nc(NC(C)c2ccc(Cl)cc2)n1 (stereo not drawn) [drawing 116],pest or weed control at 250 g/ha,Setaria,100%
same,plant injury at 250 g/ha,Wheat; [3],10%
same,pest or weed control at 250 g/ha,Viola; [4],100%
same,pest or weed control at 250 g/ha,Amaranthus,100%
same,pest or weed control at 250 g/ha,Polygonum; [5],100%
same,pest or weed control at 250 g/ha,Chenopodium; [6],100%
CC(=O)Nc1nc(NC(C)c2ccc(Cl)cc2)nc(C(Cl)Cl)n1 (stereo not drawn) [Example 145],melting point,,132 °C
same,activity against weeds,weeds [2],strong activity
